What all share (type): cell-based
Test [1] deals with T1, human TLR8 (Homo sapiens, UniProt Q9NR97).
T1 construct: host or cells: HEK-Blue cells (HEK293-derived reporter line)
T1 sequence (Q9NR97 27-1041): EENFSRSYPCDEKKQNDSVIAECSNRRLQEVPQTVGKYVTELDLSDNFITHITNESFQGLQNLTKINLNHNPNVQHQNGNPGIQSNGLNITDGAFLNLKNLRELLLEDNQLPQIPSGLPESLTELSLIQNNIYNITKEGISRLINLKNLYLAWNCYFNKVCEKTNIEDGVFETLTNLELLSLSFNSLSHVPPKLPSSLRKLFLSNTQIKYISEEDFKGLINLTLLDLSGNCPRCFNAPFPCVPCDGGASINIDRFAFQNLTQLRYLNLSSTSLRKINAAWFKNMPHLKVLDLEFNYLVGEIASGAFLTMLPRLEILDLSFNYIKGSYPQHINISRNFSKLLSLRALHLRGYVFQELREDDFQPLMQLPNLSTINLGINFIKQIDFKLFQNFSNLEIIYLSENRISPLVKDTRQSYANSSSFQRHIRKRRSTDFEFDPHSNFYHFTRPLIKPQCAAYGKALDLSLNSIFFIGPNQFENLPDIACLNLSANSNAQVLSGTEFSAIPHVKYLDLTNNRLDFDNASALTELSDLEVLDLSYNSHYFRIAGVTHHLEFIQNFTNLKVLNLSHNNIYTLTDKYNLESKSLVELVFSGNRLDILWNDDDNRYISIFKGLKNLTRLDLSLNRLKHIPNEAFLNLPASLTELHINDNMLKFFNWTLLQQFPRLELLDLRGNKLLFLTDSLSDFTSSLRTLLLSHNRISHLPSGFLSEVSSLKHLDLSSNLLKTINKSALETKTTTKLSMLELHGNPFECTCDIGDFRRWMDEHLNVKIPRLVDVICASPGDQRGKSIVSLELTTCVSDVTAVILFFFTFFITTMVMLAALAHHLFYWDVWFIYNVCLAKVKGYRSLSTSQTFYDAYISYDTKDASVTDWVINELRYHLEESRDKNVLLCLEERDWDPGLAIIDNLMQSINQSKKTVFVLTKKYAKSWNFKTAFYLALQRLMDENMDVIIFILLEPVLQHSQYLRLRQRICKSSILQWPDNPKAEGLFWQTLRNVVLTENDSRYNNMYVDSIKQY
Kind of test: TLR8 inhibition reporter assay (HEK-Blue cells, SEAP reporter). To be noted: HEK-Blue cells overexpressing human TLR8; stimulated with R848 15.9 μM; SEAP after 22 hour incubation. The method, then: (§1) TLR7/8/9 Inhibition Reporter Assays
(§2) HEK-Blue™-cells (Invivogen) overexpressing human TLR7, TLR8 or TLR9 receptors were used for screening inhibitors of these receptors using an inducible SEAP (secreted embryonic alkaline phosphatase) reporter gene under the control of the IFN-β minimal promoter fused to five NF-κB and AP-1-binding sites. Briefly, cells are seeded into Greiner 384 well plates (15000 cells per well for TLR7, 20,000 for TLR8 and 25,000 for TLR9) and then treated with test compounds in DMSO to yield a final dose response concentration range of 0.05 nM-50 μM. After a 30 minute compound pre-treatment at room temperature, the cells are then stimulated with a TLR7 ligand (gardiquimod at a final concentration of 7.5 μM), TLR8 ligand (R848 at a final concentration of 15.9 μM) or TLR9 ligand (ODN2006 at a final concentration of 5 nM) to activate NF-κB and AP-1 which induce the production of SEAP. After a 22 hour incubation at 37° C., 5% CO2, SEAP levels are determined with the addition of HEK-Blue™ Detection reagent (Invivogen), a cell culture medium that allows for detection of SEAP, according to manufacturer's specifications. The percent inhibition is determined as the % reduction in the HEK-Blue signal present in wells treated with agonist plus DMSO alone compared to wells treated with a known inhibitor.
A general note: In a reporter assay the amount or activity of a reporter protein is the signal.

The target in test [2] is T2, human TLR9 (Homo sapiens, UniProt Q9NR96).
T2 construct: host or cells: HEK-Blue cells (HEK293-derived reporter line)
T2 sequence (Q9NR96 26-1032): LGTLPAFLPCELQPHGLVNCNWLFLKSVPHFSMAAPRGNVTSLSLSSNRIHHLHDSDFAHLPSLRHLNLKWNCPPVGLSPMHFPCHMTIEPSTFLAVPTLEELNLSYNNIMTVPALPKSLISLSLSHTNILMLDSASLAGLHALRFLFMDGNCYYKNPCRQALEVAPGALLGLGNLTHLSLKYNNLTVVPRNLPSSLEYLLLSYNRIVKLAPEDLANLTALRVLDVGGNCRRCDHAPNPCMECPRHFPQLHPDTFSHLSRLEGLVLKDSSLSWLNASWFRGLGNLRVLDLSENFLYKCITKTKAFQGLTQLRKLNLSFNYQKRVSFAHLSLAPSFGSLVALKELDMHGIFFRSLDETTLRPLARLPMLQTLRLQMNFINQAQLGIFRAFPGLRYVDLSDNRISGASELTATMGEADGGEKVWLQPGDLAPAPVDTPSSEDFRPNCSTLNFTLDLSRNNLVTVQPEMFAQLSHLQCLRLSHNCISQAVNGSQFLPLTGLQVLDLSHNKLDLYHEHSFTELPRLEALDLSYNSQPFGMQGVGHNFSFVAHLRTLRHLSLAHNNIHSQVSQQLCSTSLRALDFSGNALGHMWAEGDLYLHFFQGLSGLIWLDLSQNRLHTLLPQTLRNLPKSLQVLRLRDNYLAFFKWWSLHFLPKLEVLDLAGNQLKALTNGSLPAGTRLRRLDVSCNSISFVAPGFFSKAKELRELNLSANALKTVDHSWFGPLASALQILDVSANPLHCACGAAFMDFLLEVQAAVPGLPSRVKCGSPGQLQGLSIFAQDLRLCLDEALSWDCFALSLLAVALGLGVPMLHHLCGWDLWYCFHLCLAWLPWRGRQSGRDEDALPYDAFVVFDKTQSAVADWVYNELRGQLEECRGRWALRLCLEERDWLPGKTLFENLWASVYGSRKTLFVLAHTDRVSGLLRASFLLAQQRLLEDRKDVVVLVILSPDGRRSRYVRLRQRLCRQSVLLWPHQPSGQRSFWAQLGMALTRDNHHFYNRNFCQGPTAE
Kind of test: TLR9 inhibition reporter assay (HEK-Blue cells, SEAP reporter). The settings on record: HEK-Blue cells overexpressing human TLR9; stimulated with ODN2006 5 nM; SEAP after 22 hour incubation. The method, then:
as §1, §2

In test [3] the target is T3, human TLR7 (Homo sapiens, UniProt Q9NYK1).
T3 construct: host or cells: HEK-Blue cells (HEK293-derived reporter line)
T3 sequence (Q9NYK1 27-1049): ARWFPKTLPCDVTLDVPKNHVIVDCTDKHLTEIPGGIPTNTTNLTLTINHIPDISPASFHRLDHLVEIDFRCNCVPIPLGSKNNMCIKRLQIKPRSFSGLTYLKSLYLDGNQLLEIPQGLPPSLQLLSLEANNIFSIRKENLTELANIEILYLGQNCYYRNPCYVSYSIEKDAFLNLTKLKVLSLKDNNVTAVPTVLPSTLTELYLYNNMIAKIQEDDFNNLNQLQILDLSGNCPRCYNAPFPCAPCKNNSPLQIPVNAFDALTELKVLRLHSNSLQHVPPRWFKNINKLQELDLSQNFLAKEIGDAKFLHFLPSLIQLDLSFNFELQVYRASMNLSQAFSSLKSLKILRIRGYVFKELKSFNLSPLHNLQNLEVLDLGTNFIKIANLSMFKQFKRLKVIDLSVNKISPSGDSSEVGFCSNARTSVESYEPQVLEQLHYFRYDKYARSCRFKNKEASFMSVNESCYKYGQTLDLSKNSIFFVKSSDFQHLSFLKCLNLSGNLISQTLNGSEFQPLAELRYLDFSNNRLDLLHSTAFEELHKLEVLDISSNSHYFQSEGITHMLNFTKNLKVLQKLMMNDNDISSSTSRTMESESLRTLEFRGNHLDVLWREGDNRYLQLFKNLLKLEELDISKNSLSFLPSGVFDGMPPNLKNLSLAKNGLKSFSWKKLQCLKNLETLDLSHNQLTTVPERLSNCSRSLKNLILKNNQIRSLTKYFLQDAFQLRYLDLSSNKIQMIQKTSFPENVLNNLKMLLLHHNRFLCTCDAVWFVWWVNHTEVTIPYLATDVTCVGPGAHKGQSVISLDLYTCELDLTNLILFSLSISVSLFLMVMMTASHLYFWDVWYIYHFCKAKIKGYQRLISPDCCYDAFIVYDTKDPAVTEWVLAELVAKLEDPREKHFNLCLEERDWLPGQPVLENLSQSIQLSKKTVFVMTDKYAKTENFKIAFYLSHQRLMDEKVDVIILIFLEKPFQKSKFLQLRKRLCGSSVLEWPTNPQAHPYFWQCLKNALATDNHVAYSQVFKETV
The experiment in a line: TLR7 inhibition reporter assay (HEK-Blue cells, SEAP reporter). The settings on record: HEK-Blue cells overexpressing human TLR7; stimulated with gardiquimod 7.5 μM; SEAP after 22 hour incubation. The method, then: as §1, §2

By IC50 is commonly meant the concentration at which inhibition is half-maximal. A lower IC50 goes with greater potency. In the case of `CC(C)N1[C@H](C)CN(c2ccc(-c3cnc4cc(-c5ccc(S(C)(=O)=O)cc5)n(C)c4c3)cc2)C[C@@H]1C` [Example 34], the IC50 was > 50 µM in test [1], 0.244 µM in test [2] and > 50 µM in test [3].

As for `CC(C)N1C[C@@H](C)N(c2ccc(-c3cnc4cc(-c5ccc(S(C)(=O)=O)cc5)n(C)c4c3)cc2)[C@@H](C)C1` [Example 33], the IC50 in test [1] is 4.2 µM; in test [2], 0.383 µM; in test [3] it was 3.8 µM.

Consider `COc1ccc(-c2cc3ncc(-c4ccc(N5CCN(C(C)C)CC5)cc4)cc3n2C)cc1OC` [Example 1, 2-(3,4-Dimethoxyphenyl)-6-(4-(4-isopropylpiperazin-1-yl)phenyl)-1-methyl-1H-pyrrolo[3,2-b]pyridine], for which the IC50 is 7.2 µM in test [1], 0.094 µM in test [2] and 7 µM in test [3].

As for `CC(C)N1CCN(c2ccc(-c3cnc4cc(-c5cccc(S(=O)(=O)N(C)C)c5)n(C)c4c3)cc2)CC1` [Example 40], the figures for the IC50 in test [1], in test [2] and in test [3] were 2.1 µM, 0.076 µM and 8.1 µM, respectively.

For the compound `CCN1CCN(Cc2ccc(-c3cnc4cc(-c5ccc(S(C)(=O)=O)cc5)n(C)c4c3)cc2)CC1` [Example 25], the IC50 in test [1] is 43.8 µM; in test [2] it was 0.212 µM; in test [3], > 50 µM.

With `CC(C)N1C2CCC1CN(c1ccc(-c3cnc4cc(-c5ccc(S(C)(=O)=O)cc5F)n(C)c4c3)cc1)C2` [Example 43], the IC50 in test [1] was 7.8 µM; in test [2] it was 0.292 µM; in test [3] it was > 50 µM.

With `CC(C)N1CCN(c2ccc(-c3cnc4cc(-c5ccc(S(C)(=O)=O)cc5F)n(C)c4c3)cc2)CC1` [Example 41], the IC50 in test [1] came out at 1.6 µM; in test [2] it was 0.157 µM; in test [3] it was 10 µM.

As for `CC(C)N1CCN(c2ccc(-c3cnc4cc(-c5ccc(S(C)(=O)=O)cc5)n(C)c4c3)cc2)[C@H](C)C1` [Example 28], the IC50 in test [1] turned out to be 5 µM; in test [2], 0.236 µM; in test [3], 3.2 µM.

Regarding `CN(C)C1CCN(Cc2ccc(-c3cnc4cc(-c5ccc(S(C)(=O)=O)cc5)n(C)c4c3)cc2)CC1` [Example 24], the IC50 in test [1] was > 50 µM; in test [2], 0.014 µM; in test [3] it was 4.9 µM.

In the case of `Cn1c(-c2ccc(S(C)(=O)=O)cc2F)cc2ncc(-c3ccc(N4CCN5CCCC5C4)cc3)cc21` (stereo not drawn) [Example 42], the IC50 in test [1] was 2.8 µM; in test [2], 0.436 µM; in test [3] it was > 50 µM.

For `CC(C)N1C[C@H](C)N(c2ccc(-c3cnc4cc(-c5ccc(S(C)(=O)=O)cc5)n(C)c4c3)cc2)[C@@H](C)C1` [Example 31], the IC50 in test [1] came out at 4.5 µM; in test [2] it was 0.48 µM; in test [3] it was 2.5 µM.

Regarding `CC(C)N1CCN(c2ccc(-c3cnc4cc(-c5ccc(S(C)(=O)=O)cc5)n(C)c4c3)cc2)CC1` [Example 2, 6-(4-(4-Isopropylpiperazin-1-yl)phenyl)-1-methyl-2-(4-(methylsulfonyl)phenyl)-1H-pyrrolo[3,2-b]pyridine], the IC50 stood at 7.6 µM in test [1], 0.139 µM in test [2] and 2.7 µM in test [3].

On to `Cn1c(-c2ccc(S(C)(=O)=O)cc2)cc2ncc(-c3ccc(CN4CCN(CCC(C)(C)O)CC4)cc3)cc21` [Example 19, 2-Methyl-4-(4-(4-(1-methyl-2-(4-(methylsulfonyl)phenyl)-1H-pyrrolo[3,2-b]pyridin-6-yl)benzyl)piperazin-1-yl)butan-2-ol], for which the IC50 in test [1] was determined as 4.3 µM; in test [2], 0.663 µM; in test [3], 7.9 µM.

Turning to `CC(C)CN1[C@@H]2CC[C@H]1CC(N1CCC(c3cnc4cc(-c5ccc(S(C)(=O)=O)cc5)n(C)c4c3)CC1)C2` (stereo partly drawn) [Example 36], the IC50 in test [1] was > 50 µM; in test [2], 0.022 µM; in test [3], 10.5 µM.

The values above are taken from patent US20230322770A1, “SUBSTITUTED HETEROARYL COMPOUNDS USEFUL AS INHIBITORS OF TLR9” (BRISTOL-MYERS SQUIBB COMPANY, priority 2020, published 2023).
